This note sets out measurements from paper PMC3638593, “1,4-dihydroxy-2-naphthoic Acid Induces Apoptosis in Human Keratinocyte: Potential Application for Psoriasis Treatment” (Evidence-based Complementary and Alternative Medicine : eCAM, 2013).

What all share (type): cell-based, human
Experiment [1] has as its system AIF and endoG in HaCaT cells. The experiment in a line: Immunofluorescence staining of AIF and endoG. Particulars: 240 μM (49.01 μg/mL), 24 h. Here is the method: HaCaT cells were first seeded on cover-slipped 6 well plates. After DHNA treatment, cells were washed three times with PBS and fixed in 1 : 1 acetone/methanol at −20°C for 10 min. Thereafter, cells were washed with PBS three times and then blocked for 15 min in blocking solution (1% BSA in PBS) at room temperature. After that, cells were incubated with either one of the following antibodies in blocking solution overnight at 4°C: apoptosis inducing factor, AIF or endonuclease G, and endoG. Cells were then washed with PBS three times and incubated with corresponding secondary antibody conjugated to Alexa Fluor 488 (Molecular Probes) in blocking solution in dark at room temperature for 1 h. After further washing with PBS for three times, the cover slips were then mounted on glass slides using the Vectashield mounting medium with DAPI (Vector Laboratories, Burlingame, CA). Stained cells were then visualized under the Nikon Ti-E inverted microscope (Nikon, Tokyo, Japan).

Experiment [2] deals with apoptosis related proteins in HaCaT cells. The experiment in a line: Western blot of apoptosis related proteins. As for the experimental part: (§1) After DHNA treatment HaCaT cells were collected and lysed in CelLytic M Mammalian Cell Lysis/Extraction Reagent with freshly added Protease Inhibitor Cocktail for 30 min at 4°C. Cell lysate was centrifuged at 15000 g for 15 min at 4°C and supernatant was collected as whole cell lysate. Protein concentration was determined by Bio-Rad protein assay dye reagent concentrate (Bio-Rad Laboratories, Hercules, CA, USA) following the manufacturer's instructions. Whole cell lysate was denatured by boiling for 5 min in 6X SDS loading buffer (0.375 M Tris [pH 6.8], 30% glycerol, 12% SDS, 0.2% bromophenol blue and 12% β-mercaptoethanol). Equal amount of protein (10–20 μg) was then separated by 12–15% SDS-PAGE and later proteins were transferred to polyvinylidene difluoride membrane (Millipore, Billerica, MA, USA) using Trans-Blot SD semidry transfer cell (Bio-Rad Laboratories). After that, membranes were blocked with 2–5% (w/v) bovine serum albumin or nonfat dry milk in Tris-buffered Saline-Tween (TBS-T; 0.05% v/v Tween-20, 10 mM Tris [pH 7.4], 150 mM NaCl) for 1 h and subsequently incubated overnight at 4°C with different primary antibodies in TBS-T. Membrane was then washed using TBS-T and followed by incubation with corresponding horseradish peroxidase labeled second antibodies (Santa Cruz Biotechnology) in TBS-T for 1 h. After washing of membrane with TBS-T, protein bands were visualized using Immobilon Western Chemiluminescent HRP Substrate (Millipore) and autoradiography with Lumi-Film Chemiluminescent Detection Film (Roche Applied Science). Equal protein loading was monitored by β-actin antibody on the same membrane.

Experiment [3] has as its system HaCaT cells. The experiment in a line: Hoechst 33342 fluorescent staining for morphological evaluation. Particulars: 72 h. As for the experimental part: After DHNA treatment, HaCaT cells were fixed in 4% paraformaldehyde for 30 min, washed with phosphate-buffered saline (PBS) and then stained with 2 μg/mL Hoechst 33342 (Molecular Probes, Eugene, OR, USA) for 15 min at room temperature in the dark. Morphology was evaluated using an Axiophot fluorescence microscope (Carl Zeiss, Oberkochen, Germany).

For experiment [4], the system named is cell cycle related proteins in HaCaT cells. The experiment in a line: Western blot of cell cycle related proteins. Particulars: 12 h. As for the experimental part: as §1
Background: A western blot detects proteins with antibodies after separation by electrophoresis.

Experiment [5] concerns HaCaT cells. The experiment in a line: Cell cycle analysis (PI, flow cytometry). Particulars: 24 h, Figure 5(a). Here is the method:
HaCaT cells were treated with DHNA for 24 h, fixed with 75% ice-cold ethanol at 4°C for 1 h and stained with PI/RNase solution (BD Pharmingen) for 15 min at room temperature in the dark. Stained cells were analyzed using the FACSCanto flow cytometer immediately. Cell cycle distribution was calculated with ModFit LT 3.1 (Verity Software House, Topsham, ME, USA).
On the technique in general: Flow cytometry measures light scatter and fluorescence of single cells or particles in a stream.

`O=C(O)c1cc(O)c2ccccc2c1O` [DHNA, 1,4-dihydroxy-2-naphthoic acid]: the “localization of AIF and endoG” value in experiment [1] is “translocated to the nucleus”. For the same compound, in experiment [2] (240 μM (49.01 μg/mL), 12 h), the Bid cleavage result is “not cleaved”; the “Fas receptor and active form of caspase-3/7/8” value is listed as “upregulated”; the PARP cleavage result is “induced PARP cleavage”; the “active form of caspase-9” value is on record as “no active form of caspase-9 was found”. Moreover, in experiment [2] (240 μM (49.01 μg/mL), 12 h), the procaspase-8 level entry is on record as “decreased”. In experiment [2] (12 h), the “expression levels of Bcl-2, Bcl-xL, Bid, and FADD” value is reported as “no significant changes”. Also, the “activated caspase-9 and cleaved Bid” value in experiment [2] (24 h) is “could then be detected”. Also, the “nuclear morphology (Hoechst 33342)” value in the experiment with HaCaT cells [3] (120 μM (24.5 μg/mL)) is “light blue/white fluorescence was emitted from the nuclei of all cells”. Besides, the “nuclear fragmentation (Hoechst 33342)” value with HaCaT cells [3] (30, 60 and 120 μM) is recorded as “nuclear fragmentation was also observed”. The “nuclear morphology (Hoechst 33342)” value in the experiment on HaCaT cells [3] (30 and 60 μM) is recorded as “chromatin condensation”. Further, in experiment [4] (240 μM (49.01 μg/mL)), the “active form of Cdk2 (Thr160 phosphorylated, 33 kDa)” value is on record as “no visible change”; the “inactive form of Cdk2 (Thr14 and Tyr15 phosphorylated, 34 kDa)” value is on record as “increased”; the “level of Cyclin A/D1/D3 and Cdk4” value was “decreasing”. In experiment [4], the “expression level of p27 and Cdk6” value is recorded as “remains unchanged”; the “expression of cyclin dependent kinase inhibitor p21” value is given as “dose-dependent increase”. In addition, in the experiment on HaCaT cells [5] (60 μM (12.25 μg/mL)), the G0/G1 cell population is 39.3% and the G2/M phase cells is given as 12.4%. In the experiment with HaCaT cells [5] (120 μM (24.5 μg/mL)), this compound showed a G0/G1 cell population of 51.0%, a G2/M phase cells of 9.4%, a S phase cells of 39.6% and a sub-G0/G1 population of 19.7%.
